Data taken from the supplement of paper PMC10627819.

What was measured:
B. subtilis 168 [1] = assay: Bliss interaction score (quartile over a dose matrix) (fitness difference); higher = more antagonism (negative = synergy)
How it was run: (§1)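 Each OD595 reading at entry into stationary phase was scaled to the robust mean of the untreated wells on its plate, with a ceiling of 1. These ratios define fitness, and single-drug fitness was inferred from combinations. The Bliss score compares observed fitness with the product-based expectation and is reported as quartiles across all replicate types, technical, biological and donor/recipient.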

S. aureus DSM 20231 = assay: as above
How it was run: as §1

S. aureus Newman [2] = assay: as above
How it was run: as §1

S. pneumoniae D39V [3] = assay: as above
How it was run: as §1

B. subtilis 168 [4] = assay: fitness (endpoint OD595 vs no drug) (fraction); higher = more growth
How it was run: (§2)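 Plates with 384 wells were inoculated at OD595 0.01 using 30 µl of TSB, LB Lennox or CY, or 55 µl for S. pneumoniae. Incubation was at 37 °C, with OD595 measured every 30 min for 14 h. Fitness is the stationary-phase transition optical density over the robust mean of no-drug control wells, after first-reading background subtraction; it is capped at 1.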

S. aureus Newman [5] = assay: as above
How it was run: as §2

S. pneumoniae D39V [6] = assay: as above
How it was run: as §2
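For Bliss interaction score (quartile over a dose matrix) in this document: first quartile when negative (synergy) and third quartile when positive (antagonism).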

O=C(O)c1cn(C2CC2)c2cc(N3CCNCC3)c(F)cc2c1=O [Ciprofloxacin] + CC1=C\[C@@H](O)CC(=O)Cc2nc(co2)C(=O)N2CCC=C2C(=O)O[C@H](C(C)C)[C@H](C)/C=C/C(=O)NC\C=C\1 [Virginiamycin M1]
Conditions | Bliss interaction score
B. subtilis 168 [1] | -0.0881
S. aureus DSM 20231 | 0.0396
S. aureus Newman [2] | 0.0616
S. pneumoniae D39V [3] | -0.0532

fitness
Conditions | partner 0.0625 µg/mL | partner 0.125 µg/mL | partner 0.25 µg/mL | partner 0.5 µg/mL | partner 1 µg/mL | partner 2 µg/mL
B. subtilis 168 [4], first compound 0.0098 µg/mL | 0.941 | 0.896 | 0.859 | – | – | –
B. subtilis 168 [4], first compound 0.0195 µg/mL | 0.739 | 0.703 | 0.705 | – | – | –
B. subtilis 168 [4], first compound 0.039 µg/mL | 0.139 | 0.0393 | 0.0545 | – | – | –
S. aureus Newman [5], first compound 0.0375 µg/mL | 0.664 | 0.662 | 0.672 | – | – | –
S. aureus Newman [5], first compound 0.075 µg/mL | 0.616 | 0.658 | 0.703 | – | – | –
S. aureus Newman [5], first compound 0.15 µg/mL | 0.0348 | 0.0378 | 0.0632 | – | – | –
S. pneumoniae D39V [6], first compound 0.125 µg/mL | – | – | – | 0.969 | 0.96 | 0.909
S. pneumoniae D39V [6], first compound 0.25 µg/mL | – | – | – | 0.874 | 0.842 | 0.784

fitness, one replicate
Conditions | first compound 0.078 µg/mL | first compound 0.125 µg/mL | first compound 0.156 µg/mL | first compound 0.25 µg/mL | first compound 0.312 µg/mL | first compound 0.5 µg/mL
S. aureus Newman [5], partner 0.5 µg/mL | 0.638 | – | 0.45 | – | 0.128 | –
S. aureus Newman [5], partner 1 µg/mL | 0.785 | – | 0.503 | – | 0.125 | –
S. aureus Newman [5], partner 2 µg/mL | 0.72 | – | 0.472 | – | 0.161 | –
S. pneumoniae D39V [6], partner 0.15 µg/mL | – | 0.954 | – | 0.894 | – | 0.807
S. pneumoniae D39V [6], partner 0.3 µg/mL | – | 0.928 | – | 0.844 | – | 0.816

COc1ccc(C[C@H](N)C(=O)N[C@H]2[C@@H](O)[C@H](n3cnc4c(N(C)C)ncnc43)O[C@@H]2CO)cc1 [Puromycin] + CN(C)c1cc(NC(=O)CNC(C)(C)C)c(O)c2c1C[C@H]1C[C@H]3[C@H](N(C)C)C(O)=C(C(N)=O)C(=O)[C@@]3(O)C(O)=C1C2=O [Tigecycline]
Conditions | Bliss interaction score
B. subtilis 168 [1] | -0.044
S. aureus DSM 20231 | 0.0709
S. aureus Newman [2] | 0.0585
S. pneumoniae D39V [3] | 0.062

fitness
Conditions | first compound 0.39 µg/mL | first compound 0.78 µg/mL | first compound 1 µg/mL | first compound 1.56 µg/mL | first compound 2 µg/mL | first compound 4 µg/mL
B. subtilis 168 [4], partner 0.039 µg/mL | 0.945 | 0.976 | – | 0.953 | – | –
B. subtilis 168 [4], partner 0.078 µg/mL | 0.945 | 0.925 | – | 0.958 | – | –
B. subtilis 168 [4], partner 0.156 µg/mL | 0.895 | 0.964 | – | 0.924 | – | –
S. aureus Newman [5], partner 0.039 µg/mL | ≥ 1 | 0.999 | – | 0.985 | – | –
S. aureus Newman [5], partner 0.078 µg/mL | ≥ 1 | 0.995 | – | 0.995 | – | –
S. aureus Newman [5], partner 0.156 µg/mL | ≥ 1 | 0.991 | – | ≥ 1 | – | –
S. pneumoniae D39V [6], partner 0.65 µg/mL | – | – | 0.921 | – | 0.892 | 0.723
S. pneumoniae D39V [6], partner 1.3 µg/mL | – | – | 0.927 | – | 0.931 | 0.71
S. pneumoniae D39V [6], partner 2.6 µg/mL | – | – | ≥ 1 | – | 0.941 | 0.797

fitness, B. subtilis 168 [4], one replicate
Conditions | first compound 0.39 µg/mL | first compound 0.78 µg/mL | first compound 1.56 µg/mL
partner 0.125 µg/mL | ≥ 1 | 0.997 | ≥ 1
partner 0.25 µg/mL | 0.862 | 0.938 | 0.92
partner 0.5 µg/mL | 0.908 | 0.893 | 0.903
